Like-named read-outs stand apart in the source and are kept apart here. One block for each compound: values may come before it.
Assays:
[1] = in vitro
Experimental: The PAMPA-BBB assay was conducted according to the methodology followed by Di et al., with some modifications as described below ([15]). First, the BBB solution was prepared by dissolving 8 mg of PBL and 4 mg of cholesterol in 600 μl of n-dodecane. The initial donor solution was prepared by mixing 1 ml of extract (10 mg ml^−1 in EtOH) with 1 ml of buffer (PBS, pH = 7.4, 10 mM). The filter membrane of the donor plate was carefully coated with 5 μl of BBB solution. The acceptor plate was filled with 350 μl of buffer, and the donor plate was carefully assembled over the acceptor plate like a “sandwich.” Finally, the donor plate was filled with 350 μl of donor solution, covered, and incubated for 4 h at 37°C in the dark. After incubation time, 300 μl of the solution was taken from both plates, transferred to separate vials, and dried in the SpeedVac system at 40°C and 13 mbar pressure. Dried acceptor and donor solution were dissolved in 50 μl of pure EtOH before subjecting to UHPLC-Q-TOF-MS analysis. Permeability across in vitro BBB of the bioactive compound was measured according to Equation (1) ([25]), with some modifications in concentration rates.
(1) Pe=-ln[1-CA(t)/Ce]/A^*(1/VD+1/VA)^*t
Cequilibrium was calculated according to the following equation ([2]):
(2) Cequilibrium=[CD(t)*VD+CA(t)*VA]/(VD+VA)

[2] = ref PubChem database, cited from earlier work
[3] = PAMPA, pH 7.4, PAMPA-BBB log Pe (cm s−1)
[4] = compounds of RSFE extract, octanol-water partition coefficient
[5] = PAMPA, pH 7.4, PAMPA-BBB log Pe, compound within LPLE (Nothofagus pumilio, lenga PLE extract), N.D = not detected in acceptor
[6] = compounds identified in LPLE extract
[7] = compound within LPLE (Nothofagus pumilio, lenga PLE extract), classes based on Könczöl et al.

Compound: O=c1ccc2cc(O[C@@H]3O[C@H](CO)[C@@H](O)[C@H](O)[C@H]3O)c(O)cc2o1 [Esculin]
Cross BBB potential ([1]; PAMPA): +++ (key: -: not detected in acceptor; +: log Pe > −6.5; ++: log Pe > −5.5; +++: log Pe > −4.5)
Papp [1, 3]: 50.1 ×10⁻⁶ cm/s
Log P [2, 4]: −0.6

Cross BBB potential ([1]; PAMPA): +++
PAMPA-BBB log Pe (cm s−1) ([1]; PAMPA, 4 h, pH 7.4): −3.92 cm s−1
Papp at 4 h [1, 3]: 148 ×10⁻⁶ cm/s
Papp at 4 h ([1]; PAMPA, pH 7.4, PAMPA-BBB log Pe (cm s−1), compound within KD extract, 4 h, 37°C, PBS pH 7.4): 105 ×10⁻⁶ cm/s
Papp at 4 h [1, 5]: 138 ×10⁻⁶ cm/s
Compound: O=C(O)c1ccc(O)c(O)c1 [Protocatechuic acid]
Log P [2, 6]: 1.1
Log P ([2]; compounds of ASFE extract): 1.1
Log P ([2]; compounds of KD extract): 1.1

Compound: CC(CC(=O)C[C@@H](C)[C@H]1C[C@H](O)[C@@]2(C)C3=C(C(=O)C[C@]12C)[C@@]1(C)CC[C@H](O)C(C)(C)[C@@H]1CC3)C(=O)O (some centres unmarked) [Ganolucidic acid B]
Cross BBB potential ([1]; compound within ASFE extract): -
Cross BBB potential [1, 7]: -
Log P [2, 6]: 3.8
Log P ([2]; compounds of ASFE extract): 3.8

Cross BBB potential ([1]; PAMPA): ++
Papp at 4 h [1, 3]: 5.5 ×10⁻⁶ cm/s
Compound: COC(=O)[C@]12CCCC(C)(C)[C@@H]1CCc1cc(C(C)C)c(O)c(O)c12 [Methyl carnosate]
Log P [2, 4]: 5.2

Compound: O=C(/C=C/c1ccc(O)c(O)c1)O[C@@H](C(=O)O)[C@@H](O)C(=O)O [Caftaric acid]
Cross BBB potential ([1]; PAMPA): -
Log P ([2]; compounds of ASFE extract): 0.1

Cross BBB potential ([1]; PAMPA): ++
Papp at 4 h [1, 3]: 4.57 ×10⁻⁶ cm/s
Compound: CC(C)c1cc2c(cc1O)[C@@]1(C)CCCC(C)(C)[C@@H]1CC2=O [Sugiol]
Log P [2, 4]: 5.6

Compound: C[C@H]1O[C@H](O[C@H]2CC[C@]3(C=O)[C@H]4CC[C@]5(C)[C@@H](c6ccc(=O)oc6)CC[C@]5(O)[C@@H]4CC[C@]3(O)C2)[C@H](O)[C@@H](O)[C@@H]1O [Kalanchoside A]
Cross BBB potential ([1]; compound within KD extract): -
Log P ([2]; compounds of KD extract): −0.1

Compound: Resibufagin
Cross BBB potential ([1]; compound within KD extract): -
Log P ([2]; compounds of KD extract): 2.4

Cross BBB potential ([1]; PAMPA): +++
PAMPA-BBB log Pe (cm s−1) ([1]; PAMPA, 4 h, pH 7.4): −3.73 cm s−1
Compound: CC/C=C/CC(O)C(O)/C=C/C(O)CCCCCCCC(=O)O (centres unmarked)
Log P [2, 4]: 2.6

Compound: O=C(O[C@@H]1Cc2c(O)cc(O)cc2O[C@@H]1c1ccc(O)c(O)c1)c1cc(O)c(O)c(O)c1 [(-)-Epicatechin gallate]
Cross BBB potential ([1]; compound within ASFE extract): -
Cross BBB potential [1, 7]: -
Log P [2, 6]: 1.5
Log P ([2]; compounds of ASFE extract): 1.5

Compound: Oc1ccc(/C=C/c2cc(O)cc(O)c2)cc1 [Trans-resveratrol]
Cross BBB potential ([1]; PAMPA): -
Log P [2, 6]: 2.5
Log P ([2]; compounds of ASFE extract): 2.5

Papp at 4 h [1, 5]: 0.145 ×10⁻⁶ cm/s
Cross BBB potential ([1]; compound within RSFE extract): -
Compound: COc1cc(C(=O)O)cc(OC)c1O [Syringic acid]
Log P [2, 6]: 1.0
Log P ([2]; compounds of ASFE extract): 1.0
Log P ([2]; compounds of KD extract): 1.0
Log P [2, 4]: 1.0

Compound: COc1ccc(-c2cc(=O)c3c(O)cc(O)cc3o2)cc1O [Diosmetin]
Cross BBB potential ([1]; PAMPA): ++ (key: -: not detected in acceptor; +: log Pe > −6.5; ++: log Pe > −5.5; +++: log Pe > −4.5)
Papp [1, 3]: 31.6 ×10⁻⁶ cm/s

Cross BBB potential ([1]; PAMPA): +++
PAMPA-BBB log Pe (cm s−1) ([1]; PAMPA, 4 h, pH 7.4): −4.24 cm s−1
Compound: COc1c(O[C@@H]2O[C@H](CO)[C@@H](O)[C@H](O)[C@H]2O)cc2oc(-c3ccc(O)cc3)cc(=O)c2c1O [Homoplantaginin]
Log P [2, 4]: 0.8

Cross BBB potential ([1]; compound within RSFE extract): -
Compound: C=C1CC[C@]2(C(=O)O)CC[C@]3(C)C(=CC[C@@H]4[C@@]5(C)CC[C@H](O)C(C)(C)[C@@H]5CC[C@]43C)[C@@H]2[C@H]1C [Micromeric acid]
Log P [2, 4]: 6.5

Compound: CCOC(=O)/C=C/c1ccc(O)c(O)c1 [Ethyl caffeate]
Papp at 4 h ([1]; PAMPA, pH 7.4, PAMPA-BBB log Pe (cm s−1), compound within T33 extract, 4 h, 37°C, PBS pH 7.4): 18.6 ×10⁻⁶ cm/s
Cross BBB potential ([1]; compound within T33 extract): ++ (log Pe > −5.5)

Compound: Bersaldegenin-1,3,5-orthoacetate
Cross BBB potential ([1]; compound within KD extract): -
Log P ([2]; compounds of KD extract): 4.87

Compound: CC(C)=CCc1cc(/C=C/C(=O)O)cc(CC=C(C)C)c1O [Artepillin C]
Cross BBB potential ([1]; PAMPA): +++
PAMPA-BBB log Pe (cm s−1) ([1]; PAMPA, 4 h, pH 7.4): −4.42 cm s−1
Log P [2, 4]: 5.4

Compound: CC12O[C@H]3C[C@@H](O1)[C@]1(C=O)[C@H]4[C@H](O)C(=O)[C@]5(C)[C@@H](c6ccc(=O)oc6)CC[C@]5(O)[C@@H]4CC[C@@]1(C3)O2 [Daigremontianin]
detection in the acceptor plate of PAMPA-BBB ([1]; PAMPA): could not be found in the acceptor plate
Cross BBB potential ([1]; compound within KD extract): ++ (log Pe > −5.5)
PAMPA-BBB log Pe (cm s−1) ([1]; compound within KD extract, 4 h, 37°C, PBS pH 7.4): −4.53 cm s−1
Log P ([2]; compounds of KD extract): −0.3

Cross BBB potential ([1]; PAMPA): +++
Papp at 4 h [1, 3]: 64.6 ×10⁻⁶ cm/s
Compound: C[C@H]1[C@H](C)CC[C@]2(C(=O)O)CC[C@]3(C)C(=CC[C@@H]4[C@@]5(C)C[C@@H](O)[C@H](O)[C@@](C)(CO)[C@@H]5CC[C@]43C)[C@H]12 [Asiatic acid]

Compound: COc1cc(C(=O)O)ccc1O[C@@H]1O[C@H](CO)[C@@H](O)[C@H](O)[C@H]1O [Vanillic acid-O-hexoside]
Cross BBB potential ([1]; compound within RSFE extract): +++ (log Pe > −4.5)
PAMPA-BBB log Pe (cm s−1) ([1]; compound within RSFE extract, 4 h, 37°C, PBS pH 7.4): −4.19 cm s−1
